Results as given in patent publication US20070009593A1, “Methods of treating cancer” (Indianan University Advanced Research, priority 2002, published 2007).
Where two headings read alike, the source gives them in different places.

Experiments:
[1] = test system: MDA-436IκBSR (super-repressor of NF-κB over-expressed); assay: MTT assay, breast cancer line; type: cell-based; settings: Homo sapiens, read-out: Ritonavir IC50
[2] = test system: Surface her2; assay: surface her2 in breast cancer lines under ritonavir; type: cell-based, human; settings: SKBR-3, ritonavir treatment
[3] = test system: HUVEC; assay: HUVEC tubule formation assay; type: cell-based; settings: Homo sapiens, 72 h, fibrin gel, VEGF and bFGF, counted at three days, read-out: IC50, formation of new endothelial cell tubules
Protocol: Endothelial cell tubule formation in a fibrin clot is an analog of angiogenesis and was used to assay angiogenesis inhibitors (Brown et al., Lab. Investig. 75:539, 1996). HUVEC were coated on Cytodex™ microcarrier beads (Pharmacia) at a density of 30 HUVEC per bead, in a siliconized dish containing HUVEC complete medium, for 24 hours. […] Tubules were counted at three days.

[4] = test system: H460; assay: MTT assay, NSCLC cell line; type: cell-based; settings: Homo sapiens
[5] = test system: MDA-MB-435 human breast cancer xenografts; assay: nude mouse mammary fat pad xenograft model; type: in vivo, nude mice; settings: 19 days
Protocol: An inoculum of 5×10^5 MDA-MB-435 cells in 100 μl was injected into the mammary fat pad of each female animal. […] The tumor growth rate was reduced by 16% in the mice treated at 20 mg/kg, compared to the mice treated with vehicle.

[6] = test system: Caco 2 C9 control (pRC/CMV vector); assay: MTT assay, 96 well plate, 48 h; type: cell-based; settings: Caco-2, 48 h, read-out: Ritonavir IC50
[7] = test system: Surface EGFR; assay: surface EGFR in breast cancer lines under ritonavir; type: cell-based, human; design: reference not given here
[8] = test system: H522; assay: MTT assay, NSCLC cell line; type: cell-based; settings: Homo sapiens
[9] = test system: MDA-MD-435 cells; assay: proliferation assay, MTT, 24 hours; type: cell-based; settings: Homo sapiens, 24 hours exposure, averaging 2 experiments
Protocol: Proliferation assays were done by plating cells in a 96 well plate at […] for the 231 cells and 5×10^3 cells per well for the 435 cells. The cells were allowed to attach and grow for 24 hours. […] The cells were allowed to grow for 24 hours and the number of viable cells was measured by MTT assay.

[10] = ritonavir serum levels in mice
[11] = test system: MDA-MB-231 human breast cancer tumors; assay: MDA-MB-231 xenograft model; type: in vivo, nude mice; settings: 40 mg/kg
Protocol: (Tumor size was measured by the method volume in cubic mm=length×[width]squared/2.) The tumors in this preliminary experiment took 7 weeks to grow and represent established tumors. […] FIG. 6B confirms the finding of 6A, showing that all three of the control tumors progressed. […] FIG. 6C depicts weight of the tumor when measured at days 1, 6, 9, and 13. FIG. 6D depicts weight of the animal when measured at days 1, 3, 6, 10, and 13.

[12] = test system: Caco 2 cells; assay: proliferation / combination assay in colon cancer cells; type: cell-based; settings: Homo sapiens
[13] = test system: Caco 2 2-3 (calpastatin over-expressing); assay: MTT assay, 96 well plate, 48 h; type: cell-based; settings: Homo sapiens, Caco-2, read-out: Ritonavir IC50, 2-3 line
[14] = test system: breast cancer lines; assay: Annexin V/propidium iodide flow cytometry; type: cell-based, human; settings: at the ritonavir IC50 and IC80
[15] = test system: HUVEC; assay: HUVEC cell spreading assay; type: cell-based, human; settings: 40 μM
Protocol: Cells were fixed in 3.7% formaldehyde in PBS, blocked and stained with Oregon-green phalloidin 514 (Molecular Probes), and then digitally photographed using a Zeiss inverted fluorescence microscope equipped with a CCD camera. Cell areas were measured on the digital images using the Spot program (Diagnostic Imaging).

[16] = target: T1, chymotryptic active site of the proteasome (ZGGL-AMC cleavage) (Homo sapiens, UniProt P28074); assay: fluorometric assay of ZGGL-AMC cleavage by Caco 2 cells; type: cell-based; settings: for ZGGL-AMC cleavage: Caco 2 cells (DMSO control 0.287)
T1 construct: Fluorometric assay of ZGGL-AMC cleavage by Caco 2 cells; endogenous in cells; host or cells: Caco 2

[17] = test system: Caco 2 0.5-11 (calpastatin over-expressing); assay: MTT assay, 96 well plate, 48 h; type: cell-based; settings: Homo sapiens, Caco-2, read-out: Ritonavir IC50, 0.5-11 line (calpain activity reduction of 80%)
[18] = in vivo; settings: mouse, ip
[19] = test system: MDA-231; assay: MTT assay, breast cancer line; type: cell-based; settings: Homo sapiens
Protocol: (§1) The drugs were tested together at the ratio of their IC50 as single agents, over a 4-log range of concentrations. […] Viable cell number was measured by MTT assay.

[20] = test system: T47D; assay: MTT assay, breast cancer line; type: cell-based; settings: Homo sapiens, read-out: Ritonavir IC50
Protocol: as §1

[21] = test system: SKBR-3; assay: MTT assay, breast cancer line; type: cell-based; settings: Homo sapiens, SK-BR-3, read-out: Ritonavir IC50
Protocol: as §1

[22] = test system: MCF7; assay: MTT assay, breast cancer line; type: cell-based; settings: Homo sapiens, MCF7, read-out: Ritonavir IC50
Protocol: as §1

[23] = test system: MDA-436; assay: MTT assay, breast cancer line; type: cell-based; settings: Homo sapiens, read-out: Ritonavir IC50; MDA-436 parental line
Protocol: as §1

With `CC(C)c1nc(CN(C)C(=O)N[C@H](C(=O)N[C@@H](Cc2ccccc2)C[C@H](O)[C@H](Cc2ccccc2)NC(=O)OCc2cncs2)C(C)C)cs1` [Ritonavir, ritonavir] the IC50 [1] was 26 µM, the “Surface her2 Ritonavir” value [2] was 0.4 and the IC50 [3] was 16 µM. The IC50 ([4]; NCI-H460) was 47.5 µM, the IC80 ([4]; NCI-H460, single agent) was 100 µM and the “tumor growth rate reduced, compared to vehicle” value (shortened to “tumor growth rate reduced”) ([5]; 10 mg/kg daily gavage, one outlier tumor removed) was 49%. The “tumor growth rate reduced” value ([5]; 20 mg/kg daily gavage, all tumors) was 16%, the “tumor growth rate reduced” value ([5]; 20 mg/kg daily gavage, outlier tumor removed) was 55% and the IC50 [6] was 30 µM. For the same compound, the “Surface EGFR (Ritonavir)” value ([7]; MCF7, ritonavir treatment) was 1, the “Surface EGFR (Ritonavir)” value ([7]; MDA-231, ritonavir treatment) was 0.5 and the “Surface EGFR (Ritonavir)” value ([7]; MDA-436, ritonavir treatment) was 0.5. The “Surface EGFR (Ritonavir)” value ([7]; SKBR-3, ritonavir treatment) was 0.36, the “Surface EGFR (Ritonavir)” value ([7]; T47D, ritonavir treatment) was 1 and the IC50 ([8]; NCI-H522) was 42.5 µM. The IC80 ([8]; NCI-H522, single agent) was 90 µM, the IC50 [9] was about 150 µM and the trough drug levels ([10]; Tween 80, ip injection) was “less than 0.1 μM”. For the same compound, the peak ritonavir concentrations ([10]; oral gavage, Norvir liquid, 40 mg/kg body weight) was “less than 1 μM”, the “growth rate of tumors” value ([11]; nude mice, FIG. 6C) was “decrease the growth rate of tumors” and the “weight of the animal” value ([11]; nude mice, FIG. 6D) was “without causing wasting of the mice”. The tumor response ([11]; three established tumors, FIG. 6A) was “two tumors of three exhibited stable disease”, the IC50 ([12]; Caco-2, 48 h, read-out: IC50 (50% inhibition of proliferation)) was 30 µM and the IC50 ([12]; Caco 2, single agent, read-out: IC50) was 45 µM. The IC50 [13] was 20 µM, the apoptosis [14] was “increased apoptosis” and the “reduction of cell area” value ([15]; 1 hour of spreading) was 15%. It also gave a cell area ([15]; 1 hour spreading on fibronectin) of 4100±160 μm^2, a ZGGL-AMC cleavage ([16]; 6 μM) of 0.432 pmol·s^1− 10^6 cells and a ZGGL-AMC cleavage ([16]; 12 μM) of 0.412 pmol·s^1− 10^6 cells. The ZGGL-AMC cleavage ([16]; 24 μM) was 0.337 pmol·s^1− 10^6 cells, the ZGGL-AMC cleavage ([16]; 60 μM) was 0.409 pmol·s^1− 10^6 cells and the “effect on ZGGL-AMC cleavage” value ([16]; Caco 2 cells) was “does not block cleavage”. For the same compound, the IC50 [17] was 15 µM, the half-life [18] was under 3 h and the IC50 ([19]; MDA-MB-231, read-out: Ritonavir IC50, MDA-231) was 50 µM. It also gave an IC50 ([19]; MDA-MB-231, MDA-231, 48 hours, MTT, single agent, read-out: IC50) of 60 µM, an IC50 [20] of 12 µM and an IC50 [21] of 60 µM. For the same compound, the IC50 [22] was 25 µM and the IC50 [23] was 40 µM.
